From PMC11233931, “Remodeling tumor‐associated macrophage for anti‐cancer effects by rational design of irreversible inhibition of mitogen‐activated protein kinase‐activated protein kinase 2” (MedComm, 2024) come the findings set out here.

Common to all, as to test: Eurofins kinase selectivity profile against 380 other human recombinant kinases (Table S2)
What all share (assay type): biochemical

Assay [1] concerns the target T1, 380 human recombinant protein kinases (Homo sapiens, UniProt P53667).
T1 construct: purchased Eurofins (Celle Lévescault)
As to conditions: LIMK1(h), read-out: Inhibition rate. The method, boiled down:
(§1)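 Profiling against 380 human recombinant kinases carried out by Eurofins at various compound concentrations.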

Assay [2] concerns the target T2, 380 human recombinant protein kinases (Homo sapiens, UniProt Q09013).
T2 construct: purchased Eurofins (Celle Lévescault)
T2 sequence (Q09013 1-629): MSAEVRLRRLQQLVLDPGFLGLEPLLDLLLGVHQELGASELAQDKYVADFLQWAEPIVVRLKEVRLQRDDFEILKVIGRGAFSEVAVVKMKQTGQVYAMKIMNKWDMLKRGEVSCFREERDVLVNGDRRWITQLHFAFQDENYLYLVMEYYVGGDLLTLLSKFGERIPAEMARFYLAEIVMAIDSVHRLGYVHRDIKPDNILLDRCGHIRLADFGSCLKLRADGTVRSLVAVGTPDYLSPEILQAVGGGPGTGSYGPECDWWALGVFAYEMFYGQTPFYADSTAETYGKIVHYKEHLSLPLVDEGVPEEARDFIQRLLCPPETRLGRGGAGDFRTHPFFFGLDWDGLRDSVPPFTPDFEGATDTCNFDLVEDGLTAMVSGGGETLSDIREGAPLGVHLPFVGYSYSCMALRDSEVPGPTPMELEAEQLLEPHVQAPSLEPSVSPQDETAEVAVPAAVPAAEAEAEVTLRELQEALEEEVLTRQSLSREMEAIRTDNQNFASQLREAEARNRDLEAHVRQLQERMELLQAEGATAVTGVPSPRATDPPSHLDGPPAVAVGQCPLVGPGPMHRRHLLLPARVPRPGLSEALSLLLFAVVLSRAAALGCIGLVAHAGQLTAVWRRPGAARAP
As to conditions: DMPK(h), read-out: Inhibition rate. In short, it runs like this: as §1

Assay [3] addresses T3, 380 human recombinant protein kinases (Homo sapiens, UniProt Q5VT25).
T3 construct: purchased Eurofins (Celle Lévescault)
The note with it: MRCKα(h), read-out: Inhibition rate. The method, boiled down:
as §1

Assay [4] deals with T4, 380 human recombinant protein kinases (Homo sapiens, UniProt Q96J92).
T4 construct: purchased Eurofins (Celle Lévescault)
As to conditions: WNK4(h), read-out: Inhibition rate (%). In short, it runs like this: as §1

The target in assay [5] is T5, 380 human recombinant protein kinases (Homo sapiens, UniProt Q9H2K8).
T5 construct: purchased Eurofins (Celle Lévescault)
T5 sequence (Q9H2K8 1-898): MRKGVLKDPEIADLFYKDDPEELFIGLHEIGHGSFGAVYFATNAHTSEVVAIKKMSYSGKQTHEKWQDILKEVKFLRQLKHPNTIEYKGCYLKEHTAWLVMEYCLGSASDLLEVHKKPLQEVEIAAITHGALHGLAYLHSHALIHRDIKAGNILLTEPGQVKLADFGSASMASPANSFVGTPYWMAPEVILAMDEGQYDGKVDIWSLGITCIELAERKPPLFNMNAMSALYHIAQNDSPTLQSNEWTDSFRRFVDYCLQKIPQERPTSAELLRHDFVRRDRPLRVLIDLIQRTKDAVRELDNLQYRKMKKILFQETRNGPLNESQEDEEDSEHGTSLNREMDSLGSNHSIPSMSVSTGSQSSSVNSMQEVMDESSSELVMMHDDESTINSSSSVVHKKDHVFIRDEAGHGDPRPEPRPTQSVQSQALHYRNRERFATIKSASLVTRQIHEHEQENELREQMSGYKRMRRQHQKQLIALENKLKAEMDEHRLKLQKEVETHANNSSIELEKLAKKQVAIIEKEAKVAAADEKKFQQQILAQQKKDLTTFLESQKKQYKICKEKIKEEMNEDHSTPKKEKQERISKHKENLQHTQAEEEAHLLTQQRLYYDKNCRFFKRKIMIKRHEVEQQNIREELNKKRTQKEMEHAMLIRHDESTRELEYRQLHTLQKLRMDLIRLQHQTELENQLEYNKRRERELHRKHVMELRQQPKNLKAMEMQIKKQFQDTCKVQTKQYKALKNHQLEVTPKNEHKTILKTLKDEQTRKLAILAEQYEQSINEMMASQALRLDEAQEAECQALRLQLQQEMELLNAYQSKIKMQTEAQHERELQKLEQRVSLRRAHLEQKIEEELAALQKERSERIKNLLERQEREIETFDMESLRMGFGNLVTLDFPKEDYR
As to conditions: TAO3(h), read-out: Inhibition rate (%). In short, it runs like this:
as §1

For assay [6], the target named is T6, 380 human recombinant protein kinases (Homo sapiens, UniProt Q9NYY3).
T6 construct: purchased Eurofins (Celle Lévescault)
The note with it: Snk(h), read-out: Inhibition rate (%). The method, boiled down: as §1

In general, inhibition refers to the change of the read-out against control, counted positive when it falls.

T3 sequence (Q5VT25 whole entry): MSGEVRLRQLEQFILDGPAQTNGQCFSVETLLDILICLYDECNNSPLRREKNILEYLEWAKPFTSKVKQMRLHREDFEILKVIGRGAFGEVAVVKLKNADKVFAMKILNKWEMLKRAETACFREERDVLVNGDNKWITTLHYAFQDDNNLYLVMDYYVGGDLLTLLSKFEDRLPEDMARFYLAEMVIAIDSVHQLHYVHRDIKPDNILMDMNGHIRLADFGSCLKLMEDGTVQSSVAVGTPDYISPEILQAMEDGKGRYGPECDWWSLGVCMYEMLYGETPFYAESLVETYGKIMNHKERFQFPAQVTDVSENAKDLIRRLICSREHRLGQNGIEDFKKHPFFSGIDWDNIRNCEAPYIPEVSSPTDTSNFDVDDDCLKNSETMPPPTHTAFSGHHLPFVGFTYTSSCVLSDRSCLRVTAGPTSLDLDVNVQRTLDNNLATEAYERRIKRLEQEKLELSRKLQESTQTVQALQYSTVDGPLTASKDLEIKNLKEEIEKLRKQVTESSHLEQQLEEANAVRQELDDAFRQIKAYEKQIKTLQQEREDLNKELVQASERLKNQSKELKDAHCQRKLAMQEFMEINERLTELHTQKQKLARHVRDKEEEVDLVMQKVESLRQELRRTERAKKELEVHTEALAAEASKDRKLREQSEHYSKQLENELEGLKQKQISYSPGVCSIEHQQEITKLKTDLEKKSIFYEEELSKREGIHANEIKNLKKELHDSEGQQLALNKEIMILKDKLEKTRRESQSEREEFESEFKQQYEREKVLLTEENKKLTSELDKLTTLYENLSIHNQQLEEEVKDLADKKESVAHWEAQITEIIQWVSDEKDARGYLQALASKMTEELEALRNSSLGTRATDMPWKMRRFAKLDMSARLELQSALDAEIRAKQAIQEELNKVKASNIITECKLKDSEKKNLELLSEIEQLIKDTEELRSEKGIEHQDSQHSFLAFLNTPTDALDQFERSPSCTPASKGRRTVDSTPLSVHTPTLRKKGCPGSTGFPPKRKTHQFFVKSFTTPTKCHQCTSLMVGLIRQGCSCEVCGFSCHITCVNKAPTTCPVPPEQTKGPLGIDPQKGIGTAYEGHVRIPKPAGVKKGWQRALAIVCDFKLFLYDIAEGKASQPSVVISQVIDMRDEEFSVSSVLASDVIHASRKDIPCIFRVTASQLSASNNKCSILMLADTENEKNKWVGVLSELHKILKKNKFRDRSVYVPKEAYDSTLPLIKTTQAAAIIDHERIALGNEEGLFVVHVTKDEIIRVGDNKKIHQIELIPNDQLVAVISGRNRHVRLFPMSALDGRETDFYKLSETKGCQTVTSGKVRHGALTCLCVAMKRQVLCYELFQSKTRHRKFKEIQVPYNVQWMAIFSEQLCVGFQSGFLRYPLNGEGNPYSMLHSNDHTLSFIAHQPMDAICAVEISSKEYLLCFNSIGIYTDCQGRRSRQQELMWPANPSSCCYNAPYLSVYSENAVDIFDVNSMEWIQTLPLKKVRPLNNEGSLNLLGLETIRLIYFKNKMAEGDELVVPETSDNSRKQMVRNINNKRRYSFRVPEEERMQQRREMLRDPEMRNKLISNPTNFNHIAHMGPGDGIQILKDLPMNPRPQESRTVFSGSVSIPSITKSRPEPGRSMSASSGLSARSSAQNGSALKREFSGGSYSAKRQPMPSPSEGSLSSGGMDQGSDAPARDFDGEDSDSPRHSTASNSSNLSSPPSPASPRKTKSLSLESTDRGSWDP
T1 sequence (P53667 whole entry): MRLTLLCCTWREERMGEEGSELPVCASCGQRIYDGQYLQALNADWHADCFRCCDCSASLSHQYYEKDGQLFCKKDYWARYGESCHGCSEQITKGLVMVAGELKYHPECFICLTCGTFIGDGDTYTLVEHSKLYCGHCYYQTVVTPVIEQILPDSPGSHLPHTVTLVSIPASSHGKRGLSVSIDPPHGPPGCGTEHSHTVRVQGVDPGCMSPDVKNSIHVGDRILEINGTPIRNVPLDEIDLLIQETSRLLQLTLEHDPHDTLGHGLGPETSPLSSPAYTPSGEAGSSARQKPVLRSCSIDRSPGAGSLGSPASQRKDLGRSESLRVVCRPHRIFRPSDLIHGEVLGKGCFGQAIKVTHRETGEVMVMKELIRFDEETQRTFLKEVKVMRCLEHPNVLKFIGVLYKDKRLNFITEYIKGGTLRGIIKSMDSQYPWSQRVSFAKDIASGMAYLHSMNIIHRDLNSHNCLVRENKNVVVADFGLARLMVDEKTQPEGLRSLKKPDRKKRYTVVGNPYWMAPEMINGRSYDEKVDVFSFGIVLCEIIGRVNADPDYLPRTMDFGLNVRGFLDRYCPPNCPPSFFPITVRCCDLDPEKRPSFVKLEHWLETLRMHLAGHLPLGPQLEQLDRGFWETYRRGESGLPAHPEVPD
T4 sequence (Q96J92 whole entry): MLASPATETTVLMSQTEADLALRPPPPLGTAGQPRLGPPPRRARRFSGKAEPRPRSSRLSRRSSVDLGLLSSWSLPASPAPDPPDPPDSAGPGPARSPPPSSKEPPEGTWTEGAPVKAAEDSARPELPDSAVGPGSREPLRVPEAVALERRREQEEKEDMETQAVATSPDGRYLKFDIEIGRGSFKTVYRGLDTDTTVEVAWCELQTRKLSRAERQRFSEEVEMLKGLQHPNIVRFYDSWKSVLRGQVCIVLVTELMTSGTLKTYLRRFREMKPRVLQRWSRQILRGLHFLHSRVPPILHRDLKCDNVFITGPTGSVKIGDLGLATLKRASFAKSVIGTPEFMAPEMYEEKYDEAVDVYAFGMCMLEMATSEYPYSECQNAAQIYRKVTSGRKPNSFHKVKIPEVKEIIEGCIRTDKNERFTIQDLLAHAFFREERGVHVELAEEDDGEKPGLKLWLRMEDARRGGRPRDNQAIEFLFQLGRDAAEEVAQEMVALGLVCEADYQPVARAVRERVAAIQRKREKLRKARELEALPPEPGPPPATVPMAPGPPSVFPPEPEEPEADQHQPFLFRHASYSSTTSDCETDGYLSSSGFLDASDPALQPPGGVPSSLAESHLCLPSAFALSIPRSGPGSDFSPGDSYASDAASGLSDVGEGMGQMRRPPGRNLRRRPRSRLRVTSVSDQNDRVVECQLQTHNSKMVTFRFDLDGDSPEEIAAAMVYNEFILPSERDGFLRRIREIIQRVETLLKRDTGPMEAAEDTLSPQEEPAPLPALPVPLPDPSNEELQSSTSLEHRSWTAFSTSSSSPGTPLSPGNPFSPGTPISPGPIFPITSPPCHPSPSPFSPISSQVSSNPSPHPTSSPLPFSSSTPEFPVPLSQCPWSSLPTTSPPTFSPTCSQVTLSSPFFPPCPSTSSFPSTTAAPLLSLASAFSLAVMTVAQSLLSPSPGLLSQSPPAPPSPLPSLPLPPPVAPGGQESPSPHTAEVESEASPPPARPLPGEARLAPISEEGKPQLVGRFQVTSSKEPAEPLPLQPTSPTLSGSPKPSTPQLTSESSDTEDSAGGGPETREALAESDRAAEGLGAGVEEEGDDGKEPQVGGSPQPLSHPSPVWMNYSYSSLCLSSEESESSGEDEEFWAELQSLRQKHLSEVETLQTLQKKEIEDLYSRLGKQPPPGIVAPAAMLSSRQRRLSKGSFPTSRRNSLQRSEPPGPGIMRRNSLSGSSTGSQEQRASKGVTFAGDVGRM
T6 sequence (Q9NYY3 whole entry): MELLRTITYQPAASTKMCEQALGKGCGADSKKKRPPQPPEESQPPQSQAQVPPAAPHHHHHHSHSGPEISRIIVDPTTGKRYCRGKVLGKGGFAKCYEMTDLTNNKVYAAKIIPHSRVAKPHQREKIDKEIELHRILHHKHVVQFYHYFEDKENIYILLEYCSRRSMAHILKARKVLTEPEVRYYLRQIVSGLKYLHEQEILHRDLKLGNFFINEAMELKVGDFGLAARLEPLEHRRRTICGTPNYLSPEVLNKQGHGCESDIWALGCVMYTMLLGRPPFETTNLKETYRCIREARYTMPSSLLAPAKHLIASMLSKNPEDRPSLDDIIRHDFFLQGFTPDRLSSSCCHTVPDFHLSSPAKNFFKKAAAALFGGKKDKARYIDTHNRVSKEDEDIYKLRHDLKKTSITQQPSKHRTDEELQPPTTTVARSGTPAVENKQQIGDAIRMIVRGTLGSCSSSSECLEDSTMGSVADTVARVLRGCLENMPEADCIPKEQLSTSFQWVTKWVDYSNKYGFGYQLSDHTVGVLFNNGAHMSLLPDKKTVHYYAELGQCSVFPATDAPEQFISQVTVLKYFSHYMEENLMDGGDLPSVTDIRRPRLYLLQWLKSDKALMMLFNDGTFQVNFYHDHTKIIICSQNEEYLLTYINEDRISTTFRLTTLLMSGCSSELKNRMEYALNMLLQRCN

As for `C=CC(=O)Nc1cc(-c2cc(-c3cc4c([nH]3)CCNC4=O)ccn2)ccc1OC(F)(F)F` [compound 11], the inhibition at 0.01 µM is -5% in assay [1] (10 nM); -5% in assay [2] (10 nM); -5% in assay [3] (10 nM); 6% in assay [4] (10 nM); -4% in assay [5] (10 nM); 0% in assay [6] (10 nM). Further, the inhibition at 0.1 µM was -2% in assay [1] (100 nM); 1% in assay [2] (100 nM); -3% in assay [3] (100 nM); 6% in assay [4] (100 nM); 0% in assay [5] (100 nM); 10% in assay [6] (100 nM). The inhibition at 1 µM in assay [1] (1000 nM) was -2%; in assay [2] (1000 nM), 7%; in assay [3] (1000 nM), -3%; in assay [4] (1000 nM), 3%; in assay [5] (1000 nM) it was 7%; in assay [6] (1000 nM), 15%.
